# Square brackets hold non-standard residues; d marks the D form. Peptide text beside a SMILES is read from it. Hyp = O=C(O)[C@@H]1C[C@@H](O)CN1
# Key:
# human NR2B [1] = target: T1, human NR2B (Homo sapiens, UniProt Q13224)
# NR2A = NR2A (Homo sapiens, UniProt Q12879); assay type: cell-based
# human NR2B [2] = target: T1, human NR2B; experiment: cell-based
# T1 sequence (Q13224 whole entry, looked up): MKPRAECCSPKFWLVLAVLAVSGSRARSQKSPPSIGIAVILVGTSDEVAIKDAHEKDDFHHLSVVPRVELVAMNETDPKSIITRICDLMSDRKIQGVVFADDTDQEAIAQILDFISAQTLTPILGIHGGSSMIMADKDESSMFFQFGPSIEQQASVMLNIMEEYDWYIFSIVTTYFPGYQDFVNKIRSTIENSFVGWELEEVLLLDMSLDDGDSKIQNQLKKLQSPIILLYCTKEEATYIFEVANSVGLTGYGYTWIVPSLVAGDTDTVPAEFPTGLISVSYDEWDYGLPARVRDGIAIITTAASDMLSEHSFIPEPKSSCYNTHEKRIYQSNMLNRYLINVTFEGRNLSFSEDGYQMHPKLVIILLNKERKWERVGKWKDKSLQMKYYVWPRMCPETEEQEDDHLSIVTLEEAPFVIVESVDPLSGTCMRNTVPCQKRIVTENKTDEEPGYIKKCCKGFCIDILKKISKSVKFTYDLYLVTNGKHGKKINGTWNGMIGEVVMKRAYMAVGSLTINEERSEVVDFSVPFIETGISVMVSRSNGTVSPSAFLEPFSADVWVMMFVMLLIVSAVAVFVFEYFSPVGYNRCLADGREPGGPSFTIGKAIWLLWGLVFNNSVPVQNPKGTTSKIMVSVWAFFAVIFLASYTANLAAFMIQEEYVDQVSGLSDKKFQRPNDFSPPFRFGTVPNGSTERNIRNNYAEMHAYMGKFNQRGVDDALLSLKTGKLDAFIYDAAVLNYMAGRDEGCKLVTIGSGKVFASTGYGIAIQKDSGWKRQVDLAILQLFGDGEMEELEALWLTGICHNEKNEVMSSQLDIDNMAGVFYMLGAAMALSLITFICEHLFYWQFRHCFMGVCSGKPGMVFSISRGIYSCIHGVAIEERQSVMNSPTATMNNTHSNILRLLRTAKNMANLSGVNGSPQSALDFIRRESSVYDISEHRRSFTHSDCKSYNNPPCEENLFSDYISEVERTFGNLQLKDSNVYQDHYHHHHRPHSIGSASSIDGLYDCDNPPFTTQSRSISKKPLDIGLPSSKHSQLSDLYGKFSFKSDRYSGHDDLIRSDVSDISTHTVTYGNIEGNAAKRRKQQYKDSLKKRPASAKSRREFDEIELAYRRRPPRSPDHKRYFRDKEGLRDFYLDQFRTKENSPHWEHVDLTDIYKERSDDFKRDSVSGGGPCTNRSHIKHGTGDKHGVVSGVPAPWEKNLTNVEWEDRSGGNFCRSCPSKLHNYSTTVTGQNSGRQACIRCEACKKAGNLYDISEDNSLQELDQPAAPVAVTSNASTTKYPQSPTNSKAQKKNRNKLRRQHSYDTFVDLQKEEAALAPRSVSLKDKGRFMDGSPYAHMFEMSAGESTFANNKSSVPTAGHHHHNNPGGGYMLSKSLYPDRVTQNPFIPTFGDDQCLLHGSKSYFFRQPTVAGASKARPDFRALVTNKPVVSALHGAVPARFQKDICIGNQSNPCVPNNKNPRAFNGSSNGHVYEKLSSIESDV
# NR2A, sequence (Q12879 whole entry, looked up): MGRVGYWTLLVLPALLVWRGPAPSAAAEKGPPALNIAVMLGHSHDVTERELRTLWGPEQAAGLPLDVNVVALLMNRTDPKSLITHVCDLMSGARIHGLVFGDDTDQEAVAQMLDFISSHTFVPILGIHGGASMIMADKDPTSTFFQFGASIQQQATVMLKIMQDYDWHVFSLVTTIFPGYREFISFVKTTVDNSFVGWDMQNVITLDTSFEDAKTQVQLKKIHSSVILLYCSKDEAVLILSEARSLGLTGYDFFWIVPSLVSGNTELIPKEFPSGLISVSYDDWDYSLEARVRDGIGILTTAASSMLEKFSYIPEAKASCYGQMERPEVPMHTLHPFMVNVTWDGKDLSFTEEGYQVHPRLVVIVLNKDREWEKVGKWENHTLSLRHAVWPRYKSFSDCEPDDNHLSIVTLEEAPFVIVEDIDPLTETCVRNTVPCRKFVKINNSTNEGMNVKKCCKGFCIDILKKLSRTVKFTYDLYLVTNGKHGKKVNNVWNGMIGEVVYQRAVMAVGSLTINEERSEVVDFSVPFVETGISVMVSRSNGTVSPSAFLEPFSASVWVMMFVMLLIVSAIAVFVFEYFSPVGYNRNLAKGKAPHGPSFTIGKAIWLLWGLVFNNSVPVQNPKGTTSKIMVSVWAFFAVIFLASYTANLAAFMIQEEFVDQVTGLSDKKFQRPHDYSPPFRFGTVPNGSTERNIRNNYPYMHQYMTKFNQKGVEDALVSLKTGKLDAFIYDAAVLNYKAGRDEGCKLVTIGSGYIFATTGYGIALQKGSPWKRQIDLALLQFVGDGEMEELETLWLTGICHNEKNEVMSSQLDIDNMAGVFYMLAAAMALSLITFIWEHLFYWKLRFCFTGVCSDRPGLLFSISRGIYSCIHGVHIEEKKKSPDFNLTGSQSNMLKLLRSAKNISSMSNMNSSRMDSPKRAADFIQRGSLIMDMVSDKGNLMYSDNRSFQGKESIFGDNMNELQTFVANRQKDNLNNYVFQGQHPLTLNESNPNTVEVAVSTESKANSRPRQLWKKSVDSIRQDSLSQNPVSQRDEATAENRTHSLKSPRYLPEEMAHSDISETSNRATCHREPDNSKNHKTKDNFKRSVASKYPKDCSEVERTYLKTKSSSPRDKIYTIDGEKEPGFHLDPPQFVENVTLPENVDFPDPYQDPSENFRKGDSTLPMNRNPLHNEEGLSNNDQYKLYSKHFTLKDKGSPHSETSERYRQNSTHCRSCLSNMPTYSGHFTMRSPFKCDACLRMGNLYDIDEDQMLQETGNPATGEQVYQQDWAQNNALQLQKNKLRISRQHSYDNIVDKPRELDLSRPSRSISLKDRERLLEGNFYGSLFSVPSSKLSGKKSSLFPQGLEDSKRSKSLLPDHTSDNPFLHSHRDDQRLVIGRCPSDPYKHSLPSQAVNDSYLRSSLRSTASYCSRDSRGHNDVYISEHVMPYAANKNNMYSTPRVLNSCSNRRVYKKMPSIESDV
smiles,measurement,setting,value
CC(C)C[C@H](NC(=O)[C@H](Cc1ccc(O)cc1)NC(=O)[C@H](Cc1ccc(O)cc1)NC(=O)[C@@H](N)CC(N)=O)C(=O)N[C@@H](Cc1ccc(O)cc1)C(=O)N1C[C@H](O)C[C@H]1C(=O)N[C@@H](C)C(=O)N[C@@H](CCCNC(=N)N)C(=O)N1C[C@H](O)C[C@H]1C(=O)N[C@@H](CCC(=O)O)C(=O)N[C@@H](CC(N)=O)C(=O)N[C@@H](CO)C(=O)N[C@H](Cc1c[nH]c2ccccc12)C(=O)N[C@@H](Cc1c[nH]c2ccccc12)C(=O)N[C@H](C(=O)O)[C@@H](C)O [conotoxin-Ac1] (H-NYYLY[Hyp]AR[Hyp]ENS[dW]WT-OH),The Inhibition of Currents (%) NR2B,human NR2B [1],51.69%
same,The Inhibition of Currents (%) NR2A,NR2A,7.22%
same,IC50,human NR2B [2],8.22 ± 0.022 µM
